Assay results reported in patent US20240226234A1, “WNT5A PEPTIDES FOR THE TREATMENT OF ACUTE M[…]” (W[…], priority 2021, published 2024).
No end group written: not given here. *: point of attachment. For = O=C*

Tests used:
Type in all cases: cell-based, human
[1] = tested on: HL60 cells; assay: Cell growth assay, HL60 cells; conditions: Foxy-5 100 μM, 72 h
Description: (§1) A panel of human myeloid leukemia cell lines (HL60, K562, KG1a, THP1 and U937) and HS-5 mesenchymal stromal cells lineage were cultured in Roswell Park Memorial Institute medium-1640 (RPMI; Sigma) containing 10% Fetal Bovine Serum (Gibco), glutamine (2 mM; Sigma), penicillin (100 μg/mL; Sigma), streptomycin (100 μg/mL; Sigma), and amphotericin B (0.25 μg/mL; Gibco). The cells were maintained in a humidified atmosphere at 37° C. and 5% CO2 and the experiments were performed when they reached exponential growth. For the assays, cells were seeded on a 24-well plate and treated or not with Foxy-5 for 72 hours.
(§2) Cells treated with Foxy or with vehicle were collected and cell number was evaluated by manual counting in monoculture and by microscopy with Image J software analysis in 2D culture.
(§3) Next, we evaluated the proliferation rates since this process is modulated by ROS. We treated the cells with Foxy-5 (100 μM) or with vehicle (DMSO) during 72 hours, and then cell growth was analyzed by counting the cells in monoculture, manually, or by the Image J software analysis of the 2D cultures. […] Similar results were obtained in the 2D culture system using leukemia cells and HS-5 mesenchymal stromal cells.

[2] = tested on: KG1a cells; assay: Cell growth assay, KG1a cells; conditions: Foxy-5 100 μM, 72 h
Description: as §1, §2, §3

[3] = tested on: U937 cells; assay: Cell cycle assay, U937 cells; conditions: 72 h
Description: as §1
(§4) Cells treated with Foxy or with vehicle were collected and fixed, at least, 24 hours in 70% ethanol. DNA was stained with a buffer containing iodide propidium (20 μg/mL; Sigma) and RNase A (10 μg/mL; Sigma). Cell fluorescence was detected with a FACSCalibur flow cytometer (BD). The proportions of cells in the cell cycle phases were analyzed by Modifit (Verify Software House Inc), according to DNA distributions.
(§5) As we observed a reduction in the leukemic proliferation after Foxy-5 treatment, we also analyzed the cell cycle phases. Leukemia cell lines were treated for 72 hours with Foxy-5, at doses of 50 μM and 100 μM, or vehicle, stained with the Piper buffer containing RNAse and iodeto propidium and then analyzed by flow cytometry.

[4] = tested on: KG1a cells; assay: Cell cycle assay, KG1a cells; conditions: 72 h
Description: as §1, §4, §5

[5] = tested on: HL60 cells; assay: Transwell chemotaxis assay toward CXCL12, HL60 cells; conditions: HL60, Foxy-5 100 μM 72 h pretreatment, CXCL12 100 ng/mL, 24 h
Description: Leukemic cell lines, pretreated or not with Foxy-5 (72 hours of stimulation) were tested for chemotaxis in Transwell-based assays for Chemotaxis (6.5 mm diameter, 8 μm pore size; Corning). Polycarbonate membranes were incubated with poly-L-lysine (1 mg/mL) for 1 hour at 37° C. followed by saline buffer washing. Briefly, cells were collected, washed with media containing bovine serum albumin (0.1% BSA; Sigma), and then seeded at a density of 5×10^5 cells into the upper chamber of the transwell. The lower chamber was filled with media containing 0.5% BSA (negative control), media containing 10% FBS (positive control) and media 5 containing 0.5% BSA with CXCL12 (100 ng/ml; Peprotech) (Melo et al., 2014). Following 6 h or 24 h of incubation at 37° C., cells that migrated into the lower chamber were collected, centrifuged, resuspended in saline buffer and counted. The number of migrated cells was expressed as a percentage of the input, i.e., the cells number applied directly to the lower compartment in parallel wells. The migration of cells was normalized to 100%+/−standard deviation (SD) of triplicates (Favaro et al., 2013).
We investigated whether restoring of WNT5A could enable the modulation CXCL12-induced chemotaxis of leukemia cells. […]

[6] = tested on: U937 cells; assay: Actin polymerization assay, U937 cells; conditions: U937, Foxy-5 100 μM 72 h
Description: (§6) F-actin polymerization was analyzed in treated leukemic cell lines using AlexaFluor 633-labeled phalloidin (A22284, Invitrogen) before and after CXCL12 stimulation. The cells were stimulated with CXCL12 (300 ng/ml; Peprotech) in serum-free media at 37 °C for 30 and 120 seconds. The reaction was stopped by adding 3 volumes of paraformaldehyde (3.7%) at room temperature for 10 min, then washed and permeabilized on ice. Cells were stained with 633-phalloidin (2 mg/mL). Flow cytometric data were analyzed using a FACS flow cytometer (BD) followed by FlowJo software analysis. The F-actin content obtained were normalized calculating the ratio between each stimulated cells-mean fluorescence intensity (MFI) values and the nonstimulated cells MFI from the basal levels of the control cells and expressed as fold change.
(§7) Therefore, we performed a flow cytometry analysis to evaluate whether Foxy-5 treatment would be able to disrupt actin polymerization. Leukemia cell lines were treated with Foxy-5 (100 μM) or vehicle during 72 hours, stimulated with CXCL12 (300 ng/ml) for 30 or 120 seconds, and stained with […] for detection of actin polymerization by flow cytometry. […] Thus, a significant reduction of actin polymerization was shown after Foxy-5 treatment when compared to untreated cells after 30 seconds of CXCL12 induction (P<. 001).

[7] = tested on: HL60 cells; assay: Actin polymerization assay, HL60 cells; conditions: HL60, Foxy-5 100 μM 72 h
Description: as §6, §7

[8] = CXCL12 300 ng/ml for 30 seconds
[9] = CXCL12 300 ng/ml for 120 seconds

Foxy-5: Formylated hexapeptide fragment of WNT5A: MDGCEL (SEQ. ID. NO. 3) with methionine in position 1 as N-formyl methionine; WNT5A-mimicking compound (For-MDGCEL; listed as Homo sapiens)
reduced cell growth compared to vehicle treated cells ([1]; HL60, 2D culture with HS-5 stromal cells): 1.56 fold decrease | reduced cell growth compared to vehicle treated cells ([1]; HL60, monoculture): 1.22 fold decrease | reduced cell growth compared to vehicle treated cells ([2]; 2D culture with HS-5 stromal cells): 2.63 fold decrease | reduced cell growth compared to vehicle treated cells ([2]; monoculture): 1.37 fold decrease | cells in G0/G1 cell cycle phase (average) ([3]; U937, co-cultured with HS5 stromal cells, Foxy-5 50 μM): 77.37% | cells in G0/G1 cell cycle phase (average) ([3]; U937, co-cultured with HS5 stromal cells, Foxy-5 100 μM): 91.52% | cells in G0/G1 cell cycle phase (average) ([3]; U937, monoculture, Foxy-5 50 μM): 55.07% | cells in G0/G1 cell cycle phase (average) ([3]; U937, monoculture, Foxy-5 100 μM): 56.64% | cells in G0/G1 cell cycle phase (average) ([4]; co-cultured with HS5 stromal cells, Foxy-5 50 μM): 78.58% | cells in G0/G1 cell cycle phase (average) ([4]; co-cultured with HS5 stromal cells, Foxy-5 100 μM): 76.53% | cells in G0/G1 cell cycle phase (average) ([4]; monoculture, Foxy-5 50 μM): 69.95% | cells in G0/G1 cell cycle phase (average) ([4]; monoculture, Foxy-5 100 μM): 73.79% | CXCL12-induced chemotaxis (migrated cells as percentage of the input, average) [5]: 4.31% | F-actin content following CXCL12 stimulation [6, 8]: 3.03 fold increase | F-actin content following CXCL12 stimulation [6, 9]: 1.26 fold | F-actin content following CXCL12 stimulation [7, 8]: 1.14 fold increase | F-actin content following CXCL12 stimulation [7, 9]: 1.07 fold increase
